Laboratory results from ChEMBL document CHEMBL5113392, “Novel hybrid pyrrolidinedione-thiazolidinones as potential anticancer agents: Synthesis and biological evaluation” (Eur J Med Chem, 2022).
Active and inactive are the calls of the source. No cut-off for these calls is given here.

Tests used:
Jurkat [1] = assay: Anticancer activity against human Jurkat cells assessed as cell growth inhibition incubated for 72 hrs by MTT assay; type: functional
A549 = assay: Anticancer activity against human A549 cells assessed as cell growth inhibition incubated for 72 hrs by MTT assay; type: functional
MCF7 = assay: Anticancer activity against human MCF7 cells assessed as cell growth inhibition incubated for 72 hrs by MTT assay; type: functional
MDA-MB-231 = assay: Anticancer activity against human MDA-MB-231 cells assessed as cell growth inhibition incubated for 72 hrs by MTT assay; type: functional
KB 3-1 = assay: Anticancer activity against human KB 3-1 cells assessed as cell growth inhibition incubated for 72 hrs by MTT assay; type: functional
HeLa = assay: Anticancer activity against human HeLa cells assessed as cell growth inhibition incubated for 72 hrs by MTT assay; type: functional
HCT-116 [2] = assay: Anticancer activity against human HCT-116 cells assessed as cell growth inhibition incubated for 72 hrs by MTT assay; type: functional
[3] = Anticancer activity against human HCT116-p53-null cells assessed as cell growth inhibition incubated for 72 hrs by MTT assay; type: functional
U-251 = assay: Anticancer activity against human U-251 cells assessed as cell growth inhibition incubated for 72 hrs by MTT assay; type: functional
SK-OV-3 = assay: Anticancer activity against human SK-OV-3 cells assessed as cell growth inhibition incubated for 72 hrs by MTT assay; type: functional
[4] = Cytotoxicity against human HaCaT cells assessed as cell growth inhibition incubated for 72 hrs by MTT assay; type: toxicity, cell-based
[5] = Cytotoxicity against mitogen activated human peripheral blood lymphocytes assessed as cell growth inhibition incubated for 24 hrs by MTT assay; type: toxicity, cell-based, Lymphocyte
[6] = Cytotoxicity against mitogen activated human peripheral blood lymphocytes assessed as cell growth inhibition incubated for 48 hrs by MTT assay; type: toxicity, cell-based, Lymphocyte
Jurkat [7] = assay: Induction of morphological changes in human Jurkat cells assessed as change in cell shape incubated for 24 hrs by Hoechst 33258 and propidium iodide staining based fluorescence microscopy; type: functional
Jurkat [8] = assay: Induction of morphological changes in human Jurkat cells assessed as chromatin topology incubated for 24 hrs by Hoechst 33258 and propidium iodide staining based fluorescence microscopy; type: functional, cell-based
Jurkat [9] = assay: Induction of morphological changes in human Jurkat cells assessed as chromatin condensation incubated for 24 hrs by Hoechst 33258 and propidium iodide staining based fluorescence microscopy; type: functional, cell-based
Jurkat [10] = assay: Induction of morphological changes in human Jurkat cells assessed as chromatin fragmentation incubated for 24 hrs by Hoechst 33258 and propidium iodide staining based fluorescence microscopy; type: functional, cell-based
Jurkat [11] = assay: Induction of morphological changes in human Jurkat cells assessed as plasma membrane blebbing incubated for 24 hrs by Hoechst 33258 and propidium iodide staining based fluorescence microscopy; type: functional, cell-based
Jurkat [12] = assay: Induction of apoptosis in human Jurkat cells assessed as increase in cleaved capase-3 level at 0.5 uM for 24 hrs by Western blot analysis; type: functional, cell-based
Jurkat [13] = assay: Induction of apoptosis in human Jurkat cells assessed as increase in Bax level at 0.5 uM for 24 hrs by Western blot analysis; type: functional, cell-based
Jurkat [14] = assay: Induction of apoptosis in human Jurkat cells assessed as decrease in Bcl-2 level at 0.5 uM for 24 hrs by Western blot analysis; type: functional, cell-based
Jurkat [15] = assay: Induction of apoptosis in human Jurkat cells assessed as decrease in Endo-G protein level at 0.5 uM for 24 hrs by Western blot analysis; type: functional, cell-based
Salmon testes DNA [16] = assay: Displacement of methyl green from salmon sperm DNA at 10 uM measured after 2 hrs by fluorescence plate reader method relative to control; type: nucleic-acid assay; details: Salmo salar
Salmon testes DNA [17] = assay: Binding affinity to double stranded salmon sperm DNA assessed as increase in DNA oxidation level by measuring net change in absorbance at 10 uM incubated for 1 hr by UV based spectroscopic method; type: nucleic-acid assay; details: Salmo salar
Jurkat [18] = assay: Induction of DNA damage in human Jurkat cells assessed as tail DNA at 0.5 uM incubated for 24 hrs by alkaline Comet assay; type: functional
Lymphocyte [19] = assay: Induction of DNA damage in mitogen activated human peripheral blood lymphocytes assessed as tail DNA at 0.5 uM incubated for 24 hrs by alkaline Comet assay; type: toxicity, cell-based
HCT-116 [20] = assay: Induction of DNA damage in human HCT-116 cells assessed as tail DNA at 0.5 uM incubated for 2 hrs by alkaline Comet assay; type: functional
HCT-116 [21] = assay: Induction of DNA damage in human HCT-116 cell lysate assessed as tail DNA at 0.5 uM incubated for 2 hrs in dark by Comet assay; type: functional
Jurkat [22] = assay: Induction of DNA damage in human Jurkat cells assessed as olive tail moment at 0.5 uM incubated for 24 hrs by alkaline Comet assay; type: functional
Lymphocyte [23] = assay: Induction of DNA damage in mitogen activated human peripheral blood lymphocytes assessed as olive tail moment at 0.5 uM incubated for 24 hrs by alkaline Comet assay; type: toxicity, cell-based
HCT-116 [24] = assay: Induction of DNA damage in human HCT-116 cells assessed as olive tail moment at 0.5 uM incubated for 2 hrs by alkaline Comet assay; type: functional
HCT-116 [25] = assay: Induction of DNA damage in human HCT-116 cell lysate assessed as olive tail moment at 0.5 uM incubated for 2 hrs in dark by Comet assay; type: functional

GI50 (Jurkat [1]): 430 nM
GI50 (A549): 970 nM
GI50 (MCF7): 750 nM
GI50 (MDA-MB-231): 5.95 µM
GI50 (KB 3-1): 980 nM
GI50 (HeLa): 700 nM
GI50 (HCT-116 [2]): 570 nM
GI50 (U-251): 890 nM
GI50 (SK-OV-3): 9.1 µM
Activity (Salmon testes DNA [16]): 68.7%
Activity (Salmon testes DNA [17]): Active
Structure (SMILES): COc1cccc2c1C(=O)c1c(O)c3c(c(O)c1C2=O)C[C@@](O)(C(=O)CO)C[C@@H]3O[C@H]1C[C@H](N)[C@H](O)[C@H](C)O1 [DOXORUBICIN]
GI50 [3]: 2800 nM
GI50 at 72 h [4]: 640 nM
GI50 at 24 h [5]: 2900 nM
GI50 at 48 h [6]: 500 nM
Activity (Jurkat [7]): Active
Activity (Jurkat [8]): Active
Activity (Jurkat [9]): Active
Activity (Jurkat [10]): Active
Activity (Jurkat [11]): Active
Activity (Jurkat [12]): Active
Activity (Jurkat [13]): Active
Activity (Jurkat [14]): Active
Activity (Jurkat [15]): Active
Activity (Jurkat [18]): 40.9%
Activity (Lymphocyte [19]): 25.9%
Activity (HCT-116 [20]): 18%
Activity (HCT-116 [21]): 12.6%
Activity (Jurkat [22]): 12.23%
Activity (Lymphocyte [23]): 8.12%
Activity (HCT-116 [24]): 1%
Activity (HCT-116 [25]): 1.95%
